Experimental data as given in patent USRE39591E1, “6-O-substituted ketolides having antibacterial activity” (Abbott Laboratories, priority 1996, dated 2007).

Tested on: up to 32 different microorganisms
Assay: in vitro antibacterial activity (MIC), agar dilution on Brain Heart Infusion (BHI) agar with Steers replicator
Type: cell-based
Conditions: unit assumed
How it was run: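 Up to 32 strains were replicator-inoculated (1:100, or 1:10 for Micrococcus and Streptococcus) onto BHI agar plates holding serial compound dilutions and kept 20-24 h at 35-37° C. Plates were read visually against drug-free growth controls, with erythromycin A run alongside; MIC was the lowest concentration giving no growth, slight haze or sparse colonies.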

[1] = Candida albicans CCH 442 (code TT)
[2] = Enterococcus faecism ATCC 8043 (code II)
[3] = Escherichia coli DC-2 (code SS)
[4] = Escherichia coli JUHL (code QQ)
[5] = Haemophilis influenzae DILL AMP R (code WW)
[6] = Micrococcus luteus ATCC 4698 (code PP)
[7] = Micrococcus luteus ATCC 9341 (code OO)
[8] = Nocardia Asteroides ATCC9970 (code VV)
[9] = Staphylococcus aureus 1775 (code GG)
[10] = Staphylococcus aureus A5177 (code BB)
[11] = Staphylococcus aureus A-5278 (code CC)
[12] = Staphylococcus aureus ATCC 6538P (code AA)
[13] = Staphylococcus aureus CMX 553 (code FF)
[14] = Staphylococcus aureus CMX 642A (code DD)
[15] = Staphylococcus aureus NCTC10649M (code EE)
[16] = Staphylococcus epidermidis 3519 (code HH)
[17] = Streptococcus Pneumonia 5649 (code ZZA)
[18] = Streptococcus Pneumonia 5979 (code ZZ)
[19] = Streptococcus Pneumonia ATCC6303 (code XX)
[20] = Streptococcus agalactiae CMX 508 (code KK)
[21] = Streptococcus bovis A-5169 (code JJ)
[22] = Streptococcus pyogenes 930 (code MM)
[23] = Streptococcus pyogenes EES61 (code LL)
[24] = Streptococcus pyogenes PIU 2548 (code NN)

Compound: CCC1OC(=O)C(C)C(=O)C(C)C(OC2OC(C)CC(N(C)C)C2O)C(C)(OCC=Cc2ccc3ncc(-c4ccccc4)cc3c2)CC(C)C(=O)C(C)C2NC(=O)OC12C (stereo not shown) [Example 273, Compound of Formula (IX): L is CO, T is NH2, R is —CH2CH═CH-(3-phenyl-6-quinolyl)]
- MIC (organism code AA): 0.2 µg/mL
- MIC (organism code BB): 0.2 µg/mL
- MIC (organism code CC): > 100 µg/mL
- MIC (organism code DD): 0.2 µg/mL
- MIC (organism code EE): 0.2 µg/mL
- MIC (organism code FF): 0.2 µg/mL
- MIC (organism code GG): > 100 µg/mL
- MIC (organism code HH): 0.2 µg/mL
- MIC (organism code II): 0.1 µg/mL
- MIC (organism code JJ): 0.02 µg/mL
- MIC (organism code KK): 0.02 µg/mL
- MIC (organism code LL): 0.05 µg/mL
- MIC (organism code MM): 12.5 µg/mL
- MIC (organism code NN): 0.39 µg/mL
- MIC (organism code OO): 0.05 µg/mL
- MIC (organism code PP): 0.39 µg/mL
- MIC (organism code QQ): > 100 µg/mL
- MIC (organism code RR): 0.78 µg/mL
- MIC (organism code SS): > 100 µg/mL
- MIC (organism code TT): > 100 µg/mL
- MIC (organism code UU): 0.78 µg/mL
- MIC (organism code VV): 0.39 µg/mL
- MIC (organism code WW): 8 µg/mL
- MIC (organism code XX): 0.03 µg/mL
- MIC (organism code YY): 0.03 µg/mL
- MIC (organism code ZZ): 16 µg/mL
- MIC (organism code ZZA): 0.5 µg/mL

Compound: CC[C@H]1OC(=O)[C@H](C)C(=O)[C@H](C)[C@@H](O[C@@H]2O[C@H](C)C[C@H](N(C)C)[C@H]2O)[C@@](C)(OCCNCc2ccncc2)C[C@@H](C)C(=O)[C@H](C)[C@@H](O)[C@]1(C)O [Example 12, Compound of Formula (VIII): X is O, R is —CH2CH2NHCH2-(4-pyridyl)]
- MIC [1]: > 100 µg/mL
- MIC [2]: 1.56 µg/mL
- MIC [3]: > 100 µg/mL
- MIC [4]: > 100 µg/mL
- MIC (Escherichia coli SS (code RR)): 0.39 µg/mL
- MIC [5]: 32 µg/mL
- MIC [6]: 0.78 µg/mL
- MIC [7]: 0.39 µg/mL
- MIC [8]: 0.39 µg/mL
- MIC [9]: > 100 µg/mL
- MIC [10]: 3.1 µg/mL
- MIC [11]: > 100 µg/mL
- MIC [12]: 6.2 µg/mL
- MIC [13]: 6.2 µg/mL
- MIC [14]: 6.2 µg/mL
- MIC [15]: 6.2 µg/mL
- MIC [16]: 12.5 µg/mL
- MIC [17]: 2 µg/mL
- MIC [18]: > 128 µg/mL
- MIC [19]: 0.25 µg/mL
- MIC [20]: 0.78 µg/mL
- MIC [21]: 0.2 µg/mL
- MIC [22]: > 100 µg/mL
- MIC [23]: 0.39 µg/mL
- MIC [24]: 1.56 µg/mL

Compound: CC[C@H]1OC(=O)[C@H](C)C(=O)[C@H](C)[C@@H](O[C@@H]2O[C@H](C)C[C@H](N(C)C)[C@H]2O)[C@@](C)(OCC=NOCc2cccc3ccccc23)C[C@@H](C)C(=O)[C@H](C)[C@H]2NC(=O)O[C@@]21C [Example 235, Compound of Formula (IX): L is CO, T is NH, R is —CH2CH═NOCH2(1-naphthyl)]
- MIC (organism code AA): 0.2 µg/mL
- MIC (organism code BB): 0.2 µg/mL
- MIC (organism code CC): > 100 µg/mL
- MIC (organism code DD): 0.2 µg/mL
- MIC (organism code EE): 0.2 µg/mL
- MIC (organism code FF): 0.2 µg/mL
- MIC (organism code GG): > 100 µg/mL
- MIC (organism code HH): 0.2 µg/mL
- MIC (organism code II): 0.05 µg/mL
- MIC (organism code JJ): 0.01 µg/mL
- MIC (organism code KK): 0.01 µg/mL
- MIC (organism code LL): 0.01 µg/mL
- MIC (organism code MM): 25 µg/mL
- MIC (organism code NN): 0.2 µg/mL
- MIC (organism code OO): 0.05 µg/mL
- MIC (organism code PP): 0.39 µg/mL
- MIC (organism code QQ): > 100 µg/mL
- MIC (organism code RR): 0.78 µg/mL
- MIC (organism code SS): > 100 µg/mL
- MIC (organism code TT): > 100 µg/mL
- MIC (organism code UU): 0.78 µg/mL
- MIC (organism code VV): 3.1 µg/mL
- MIC (organism code WW): 4 µg/mL
- MIC (organism code XX): 0.03 µg/mL
- MIC (organism code YY): 0.03 µg/mL
- MIC (organism code ZZ): 32 µg/mL
- MIC (organism code ZZA): 0.5 µg/mL

Compound: CC[C@H]1OC(=O)[C@H](C)C(=O)[C@H](C)[C@@H](O[C@@H]2O[C@H](C)C[C@H](N(C)C)[C@H]2O)[C@@](C)(OCC=Cc2ccccc2)C[C@@H](C)C(=O)[C@H](C)[C@@H](O)[C@]1(C)O [Example 14, Compound of Formula (VIII): X is O, R is —CH2CH═CH-Phenyl]
- MIC [1]: > 100 µg/mL
- MIC [2]: 0.78 µg/mL
- MIC [3]: > 100 µg/mL
- MIC [4]: > 100 µg/mL
- MIC (Escherichia coli SS (code RR)): 6.2 µg/mL
- MIC [5]: 128 µg/mL
- MIC [6]: 0.78 µg/mL
- MIC [7]: 0.39 µg/mL
- MIC (Mycobacterium smegmatis ATCC 114 (code UU)): 3.1 µg/mL
- MIC [8]: 3.1 µg/mL
- MIC [9]: > 100 µg/mL
- MIC [10]: 1.56 µg/mL
- MIC [11]: > 100 µg/mL
- MIC [12]: 1.56 µg/mL
- MIC [13]: 3.1 µg/mL
- MIC [14]: 3.1 µg/mL
- MIC [15]: 3.1 µg/mL
- MIC [16]: 1.56 µg/mL
- MIC [17]: 2 µg/mL
- MIC [18]: 128 µg/mL
- MIC [19]: 1 µg/mL
- MIC (Streptococcus Pneumonia GYR 1171 (code YY)): 0.25 µg/mL
- MIC [20]: 0.2 µg/mL
- MIC [21]: 0.2 µg/mL
- MIC [22]: 50 µg/mL
- MIC [23]: 0.39 µg/mL
- MIC [24]: 0.78 µg/mL
